The values that follow come from article PMC5515971, “Utility of spherical human liver microtissues for prediction of clinical drug-induced liver injury” (Archives of Toxicology, 2017).

The subject of series [1] is 3D human liver microtissues (hLiMT). Nature of the series: Cytotoxicity (cellular ATP, CellTiter-Glo 2.0) in 3D human liver microtissues, 14 day repeat-dose treatment. As to conditions: for IC50: Homo sapiens, 336 h. In general terms: ATP-based viability assays read luminescence as a measure of living cells.
The test system is the same in series [2]. Nature of the series: alpha-GST release into hLiMT supernatant (ELISA). The format is cell-based. As to conditions: 336 h, 14 days, release into medium, read-out: IC50 (α-GST assay).
Series [3] deals with primary human hepatocytes (PHH). Put plainly: Cytotoxicity (cellular ATP, CellTiter-Glo) in 2D plated primary human hepatocytes, 48 h treatment.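 For all read-outs here: 384-well plates, luminescence read-out, normalized to vehicle wells with 1% DMSO.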 As to conditions: for IC50: Hepatocyte, 2D primary human hepatocytes (lot IZT), 48 h treatment, total cellular ATP content, read-out: Geomean IC50. The series is classed as cell-based.
The subject of series [4] is 3D human liver microtissues (hLiMT). Put plainly: Cytotoxicity (cellular ATP) in 3D human liver microtissues, 5-6 days treatment.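 Note: Hanging-drop spheroids, seven-point dilution series, re-dosed on day 3, CellTiter-Glo 2.0 luminescence, normalized to 0.5 or 1% DMSO vehicle controls on the same plate.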 The series is classed as cell-based. As to conditions: Homo sapiens; hLiMT, 5/6 days, ATP content; read-out: IC50 SHORT.
The conditions of series [5]: cited from earlier work.
For series [6] the following is noted: cited from earlier work; for DILI category: clinical, from literature and product labels.
For series [7] the following is noted: ref Chen et al 2016 / Chen et al 2011; cited from earlier work.
[8] abbreviates: Hepatocyte, read-out: Geomean IC50 [µM].
Where [9] appears, read: human Cmax total, used for IC50/Cmax.
Setting [10] is: human total plasma Cmax, ref literature values.
The mark [11] stands for this setting: Table 1, ref Garside et al. (2014).
Setting [12] is: clinical DILI severity category, 1-5.
Where [13] appears, read: table S-4, ref Garside et al. 2014.
Where [14] appears, read: table S-5, ref Garside et al. 2014.

Like-named read-outs stand apart in the source and are kept apart here.

For `CC(=O)Nc1ccc(O)cc1` [Acetaminophen], the IC50 in series [1] (read-out: IC50 (ATP-assay)) was 732 µM; in series [1] (read-out: IC50 LONG), 573 µM; in series [1] (setting [8]), approximately 573 µM; in series [2], 3260 µM; in series [3], 4600 µM; in series [4], 911 µM. The Cmax in series [5] (setting [9]) and in series [5] (setting [10]) was 165 µM each time.

For the compound `Cc1c(C)c2c(c(C)c1O)CCC(C)(COc1ccc(CC3SC(=O)NC3=O)cc1)O2` (stereo not drawn) [Troglitazone], the IC50 was 10.8 µM in series [1] (read-out: IC50 (ATP-assay)); 14.6 µM in series [1] (read-out: IC50 LONG); approximately 14.6 µM in series [1] (setting [8]); 14 µM in series [2]; more than 100 µM in series [3]; 25.6 µM in series [4]. For the same compound, in series [5] (setting [9]), the maximum concentration (Cmax) is 6.4 µM. The DILI severity category in series [6] (setting [11]) was 1: Severe clinical DILI (N = 23); in series [6] (setting [12]), 1. Severe Clinical DILI; in series [6] (setting [13]) it was 1; in series [6] (setting [14]) it was 1. Severe Clinical DILI. Moreover, in series [6] (ref Garside et al. 2014), the DILI category is on record as 1. Severe Clinical DILI. The “FDA DILI Classification DILI severity score” value in series [7] was 8. Further, in series [7], the “LTKB DILI classification” value is listed as “most DILI concern”.

As for `C1CCC(C(CC2CCCCN2)C2CCCCC2)CC1` (stereo not drawn) [Perhexiline], the IC50 was 2.01 µM in series [1] (read-out: IC50 (ATP-assay)); 2.5 µM in series [1] (read-out: IC50 LONG); approximately 2.6 µM in series [1] (setting [8]); 6.26 µM in series [2]; 11.2 µM in series [3]; 4.2 µM in series [4]. Also, the DILI severity category in series [6] (setting [11]) is 1: Severe clinical DILI (N = 23); in series [6] (setting [12]), 1. Severe Clinical DILI; in series [6] (setting [13]), 1; in series [6] (setting [14]), 1. Severe Clinical DILI. Also, the DILI category in series [6] (ref Garside et al. 2014) is recorded as 1. Severe Clinical DILI. The “FDA DILI Classification DILI severity score” value in series [7] is 8. Also, the “LTKB DILI classification” value in series [7] was “most DILI concern”.

Consider `O=C(O)Cc1ccccc1Nc1c(Cl)cccc1Cl` [Diclofenac], for which the IC50 in series [1] (read-out: IC50 (ATP-assay)) was 45.6 µM; in series [1] (read-out: IC50 LONG), 61.4 µM; in series [1] (setting [8]), approximately 61.4 µM; in series [2], 210 µM; in series [3], more than 500 µM; in series [4], 100 µM. Also, the Cmax in series [5] (setting [9]) and in series [5] (setting [10]) was 10.1 µM each time.

As for `Cc1ccc(C(=O)c2cc(O)c(O)c([N+](=O)[O-])c2)cc1` [Tolcapone], the IC50 in series [1] (read-out: IC50 (ATP-assay)) was 19.3 µM; in series [1] (read-out: IC50 LONG), 15.5 µM; in series [1] (setting [8]) it was approximately 19 µM; in series [2], 62.4 µM; in series [3], 158 µM; in series [4] it was 30.1 µM. Also, the maximum concentration (Cmax) in series [5] (setting [9]) and in series [5] (setting [10]) was 47.6 µM in each case. Also, the DILI severity category was 1: Severe clinical DILI (N = 23) in series [6] (setting [11]), 1. Severe Clinical DILI in series [6] (setting [12]), 1 in series [6] (setting [13]) and 1. Severe Clinical DILI in series [6] (setting [14]). Moreover, the DILI category in series [6] (ref Garside et al. 2014) is given as 1. Severe Clinical DILI. The “FDA DILI Classification DILI severity score” value in series [7] is recorded as 8. Also, the “LTKB DILI classification” value in series [7] is “most DILI concern”.

With `CCc1nn(CCCN2CCN(c3cccc(Cl)c3)CC2)c(=O)n1CCOc1ccccc1` [Nefazodone], the IC50 in series [1] (read-out: IC50 (ATP-assay)) was approximately 44.9 µM; in series [1] (read-out: IC50 LONG), 29.4 µM; in series [1] (setting [8]), approximately 29.4 µM; in series [2] it was 48.5 µM; in series [3], 36.2 µM; in series [4], 25.3 µM. Further, the “classification at 50× MOS threshold” value in series [1] (hLiMT 14 days) and in series [3] (PHH 48 h) was “hepatotoxic” throughout. Moreover, the Cmax in series [5] (setting [9]) is 4.3 µM; in series [5] (setting [10]), 4.26 µM. In addition, the DILI severity category in series [6] (setting [11]) is on record as 1: Severe clinical DILI (N = 23); in series [6] (setting [12]) it was 1. Severe Clinical DILI; in series [6] (setting [13]), 1; in series [6] (setting [14]), 1. Severe Clinical DILI. Further, the DILI category in series [6] (ref Garside et al. 2014) is listed as 1. Severe Clinical DILI. Besides, the “FDA DILI Classification DILI severity score” value in series [7] was 8. Further, the “LTKB DILI classification” value in series [7] is recorded as “most DILI concern”.

By IC50 is commonly meant the point on the concentration scale where inhibition reaches its midpoint. As a reminder, the Cmax is the maximum level reached in the sampled fluid or tissue.
